# Test results as given in PubChem BioAssay AID192 (DTP/NCI, 2004).
# Values joined by “and” are separate entries in the source; they are usually repeats but may differ in a detail not shown here. Equal values may be shown once. Inconclusive results and toxic doses are left out.
# Tested on: BDF1 mice, B16 melanoma ip, median survival T/C
# Assay: NCI In Vivo Anticancer Drug Screen. Data for tumor model B16 Melanoma (intraperitoneal) in B6D2F1 (BDF1) mice
# Conditions: endpoint: median survival time, higher = longer survival
# Outline: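 Each result divides a survival or tumor-size measurement in the compound-treated group by the same measurement in the vehicle group.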
# [1] = dose: 100.0 mg/kg/injection, schedule: Q01DX009 (ip), vehicle: saline
# [2] = dose: 200.0 mg/kg/injection, schedule: Q01DX009 (ip), vehicle: saline with Tween-80
# [3] = dose: 400.0 mg/kg/injection, schedule: Q01DX009 (ip), vehicle: saline with Tween-80
# [4] = dose: 50.0 mg/kg/injection, schedule: Q01DX009 (ip), vehicle: saline with Tween-80
# [5] = dose: 100.0 mg/kg/injection, schedule: Q01DX009 (ip), vehicle: saline with Tween-80
# [6] = dose: 50.0 mg/kg/injection, schedule: Q01DX009 (ip), vehicle: Klucel (hydroxypropylcellulose) (HPC)
# [7] = dose: 100.0 mg/kg/injection, schedule: Q01DX009 (ip), vehicle: Klucel (hydroxypropylcellulose) (HPC)
# [8] = dose: 200.0 mg/kg/injection, schedule: Q01DX009 (ip), vehicle: Klucel (hydroxypropylcellulose) (HPC)
# [9] = dose: 25.0 mg/kg/injection, schedule: Q01DX009 (ip), vehicle: Klucel (hydroxypropylcellulose) (HPC)
# [10] = dose: 100.0 mg/kg/injection, schedule: Q04DX003 (ip), vehicle: Klucel (hydroxypropylcellulose) (HPC)
# [11] = dose: 200.0 mg/kg/injection, schedule: Q04DX003 (ip), vehicle: Klucel (hydroxypropylcellulose) (HPC)
smiles,measurement,setting,value
CSc1sc2ccccc2[n+]1C,T/C,"dose: 25.0 mg/kg/injection, schedule: Q01DX009 (ip), vehicle: saline",100 % of control
same,T/C,"dose: 50.0 mg/kg/injection, schedule: Q01DX009 (ip), vehicle: saline",98 % of control
same,T/C,[1],91 % of control
CC(C)CC(NC(=O)OCc1ccccc1)C(=O)O (stereo not given),T/C,"dose: 100.0 mg/kg/injection, schedule: Q04DX003 (ip), vehicle: saline with Tween-80",102 % of control
same,T/C,[2],106 % of control
same,T/C,[3],121 % of control
CS(=O)(=O)OCCN1CCC2(CC1)SSC1(CCN(CCOS(C)(=O)=O)CC1)S2,T/C,"dose: 3.13 mg/kg/injection, schedule: Q01DX009 (ip), vehicle: saline",106 % of control
same,T/C,"dose: 6.25 mg/kg/injection, schedule: Q01DX009 (ip), vehicle: saline",106 % of control
CC1(C)OC2C(COC(=O)c3ccc([N+](=O)[O-])cc3)OC(NC(=O)N(CCCl)N=O)C2O1 (stereo not given),T/C,"dose: 6.25 mg/kg/injection, schedule: Q01DX009 (ip), vehicle: saline with Tween-80",158 % of control
same,T/C,"dose: 12.5 mg/kg/injection, schedule: Q01DX009 (ip), vehicle: saline with Tween-80",215 % of control
same,T/C,"dose: 25.0 mg/kg/injection, schedule: Q01DX009 (ip), vehicle: saline with Tween-80",204 % of control and 283 % of control
same,T/C,[4],206 % of control
CC(=N/NC(N)=S)/C(C)=N/NC(N)=S,T/C,[1],118 % of control
same,T/C,"dose: 200.0 mg/kg/injection, schedule: Q01DX009 (ip), vehicle: saline",97 % of control
CCCCCCCCCC(=O)OCCN1CCN(CCCN2c3ccccc3Sc3ccc(C(F)(F)F)cc32)CC1,T/C,"dose: 0.09 mg/kg/injection, schedule: Q01DX009 (ip), vehicle: alcohol",97 % of control
same,T/C,"dose: 0.19 mg/kg/injection, schedule: Q01DX009 (ip), vehicle: alcohol",123 % of control
same,T/C,"dose: 0.39 mg/kg/injection, schedule: Q01DX009 (ip), vehicle: alcohol",111 % of control
O=C(CC(NC(=O)OCc1ccccc1)c1nn[nH]n1)OCc1ccccc1 (stereo not given),T/C,"dose: 66.0 mg/kg/injection, schedule: Q01DX009 (ip), vehicle: saline with Tween-80",99 % of control
same,T/C,[5],107 % of control
same,T/C,"dose: 150.0 mg/kg/injection, schedule: Q01DX009 (ip), vehicle: saline with Tween-80",100 % of control
O=S(=O)(Nc1ccc(-c2ccccc2)cc1)c1ccccc1,T/C,[4],100 % of control
same,T/C,[5],91 % of control
same,T/C,[2],89 % of control
CCc1ccc(NC(=O)NC(C)C)cc1,T/C,[6],112 % of control
same,T/C,[7],109 % of control
same,T/C,[8],103 % of control
Cc1c2ccc3ccccc3c2c[n+]2ccccc12,T/C,"dose: 1.25 mg/kg/injection, schedule: Q01DX009 (ip), vehicle: Klucel (hydroxypropylcellulose) (HPC)",98 % of control
same,T/C,"dose: 2.5 mg/kg/injection, schedule: Q01DX009 (ip), vehicle: Klucel (hydroxypropylcellulose) (HPC)",98 % of control
same,T/C,"dose: 5.0 mg/kg/injection, schedule: Q01DX009 (ip), vehicle: Klucel (hydroxypropylcellulose) (HPC)",111 % of control
same,T/C,"dose: 10.0 mg/kg/injection, schedule: Q01DX009 (ip), vehicle: Klucel (hydroxypropylcellulose) (HPC)",108 % of control
same,T/C,"dose: 20.0 mg/kg/injection, schedule: Q01DX009 (ip), vehicle: Klucel (hydroxypropylcellulose) (HPC)",102 % of control
COc1cccc2c1C(=O)c1c(O)c3c(c(O)c1C2=O)C[C@@](O)(C(=O)CN1CCN(C)CC1)C[C@@H]3OC1CC(N)C(O)C(C)O1 (stereo not given in full),T/C,"dose: 1.56 mg/kg/injection, schedule: Q01DX009 (ip), vehicle: water",110 % of control
same,T/C,"dose: 3.13 mg/kg/injection, schedule: Q01DX009 (ip), vehicle: water",113 % of control
COc1ccc(Cl)cc1NC(=O)c1ccccc1C(=O)O,T/C,[7],100 % of control
same,T/C,[8],94 % of control
O=C(Nc1cccc(Cl)c1)Nc1cc(Cl)ccc1Cl,T/C,[5],100 % of control
same,T/C,[2],89 % of control
same,T/C,[3],86 % of control
O=C(Nc1ccc(F)cc1)c1cccc(C(=O)Nc2ccc(F)cc2)c1,T/C,[9],114 % of control
same,T/C,[6],101 % of control
same,T/C,[7],96 % of control
CCOC(=O)/C(Cc1cc[n+]([O-])c2ccccc12)=N/O,T/C,[10],88 % of control
same,T/C,[11],97 % of control
same,T/C,"dose: 400.0 mg/kg/injection, schedule: Q04DX003 (ip), vehicle: Klucel (hydroxypropylcellulose) (HPC)",88 % of control
C(/C=C/C=C/N1CCCCC1)=[N+]1CCCCC1,T/C,"dose: 0.13 mg/kg/injection, schedule: Q01DX009 (ip), vehicle: saline",96 % of control
same,T/C,"dose: 0.25 mg/kg/injection, schedule: Q01DX009 (ip), vehicle: saline",107 % of control
same,T/C,"dose: 0.5 mg/kg/injection, schedule: Q01DX009 (ip), vehicle: saline",101 % of control
same,T/C,"dose: 1.0 mg/kg/injection, schedule: Q01DX009 (ip), vehicle: saline",105 % of control
COc1ccc(CCNC(C)=O)cc1OC,T/C,[9],91 % of control
same,T/C,[6],89 % of control
O=c1sc(N=Nc2ccccc2)nn1-c1ccccc1,T/C,[10],94 % of control
same,T/C,[11],89 % of control
O=C1CCC(=O)N1CO,T/C,"dose: 37.5 mg/kg/injection, schedule: Q01DX009 (ip), vehicle: saline",107 % of control and 112 % of control
same,T/C,"dose: 75.0 mg/kg/injection, schedule: Q01DX009 (ip), vehicle: saline",104 % of control and 107 % of control
same,T/C,"dose: 150.0 mg/kg/injection, schedule: Q01DX009 (ip), vehicle: saline",109 % of control
